What was measured:
Format in all cases: cell-based, human
[1] = tested on: Circulating tumour cells (CTCs) from a patient with GI cancer (Cholangio Carcinoma, stage 4); assay: Drug response score assay on blood sample, Example 9; design: key to Drug response score from blood sample, conc. 1 / Drug response score from blood sample, conc. 2 / Drug response score from blood sample, conc. 3 / Drug response score from blood sample, conc. 4: normalized drug response metric per Gupta et al. 2020; details: for Drug sensitivity as calculated by the assay, Blood: interpretation based on Drug Response Scores; for Drug sensitivity as calculated by the assay, Blood / Drug response score from blood sample, conc. 1 / Drug response score from blood sample, conc. 2 / Drug response score from blood sample, conc. 3 / Drug response score from blood sample, conc. 4: blood sample; for effectiveness on Circulating Tumour Cells under laboratory conditions: GI cancer (Cholangio Carcinoma) blood sample; for Drug response score from blood sample, conc. 1: conc. 1 of each drug as in Table 27; for Drug response score from blood sample, conc. 1 / Drug response score from blood sample, conc. 2 / Drug response score from blood sample, conc. 3 / Drug response score from blood sample, conc. 4: t96h; for Drug response score from blood sample, conc. 2: conc. 2 of each drug as in Table 27; for Drug response score from blood sample, conc. 3: conc. 3 of each drug as in Table 27; for Drug response score from blood sample, conc. 4: conc. 4 of each drug as in Table 27
Description: (§1) CD45^+ cells and circulating tumour cells (CTCs) were isolated from a blood sample provided by each subject.
(§2) CD45 separation was performed by adding human CD45 microbeads (50 μl/ml blood), incubating for 15 minutes at 4° C. and then processing using an AutoMACS machine. This separates the blood sample into CD45^+ and CD45^−cells in 2 separate falcons. The falcon tubes are then centrifuged at 1200 rpm for 5 minutes.
The supernatant was removed from the CD45^+falcon tube, and the cells resuspended in DMEM with 2 μl Cell Tox, 2 μl MT and 2 μl MT. 20 μl of the resuspended CD45^+ cells was then plated in each well which will contain an immunotherapy treatment.
(§3) The supernatant was removed from the CD45^−falcon tube, and the CD45^−cells contacted with 100 μl of FcR block and 100 μl of CD326 (EpCAM) MicroBeads, followed by incubation at […] 4° C. for 30 minutes. The CD45^−cells were then processed using an AutoMACS machine to separate the EpCAM positive and negative cells into 2 separate falcon tubes. The EpCAM-cells were discarded. The supernatant was removed from the EpCAM^+ cells, and the cells resuspended in DMEM with 2 μl Cell Tox, 2 μl MT and 2 μl MT. 20 μl of the resuspended pellet was then added to all sample wells excluding a blank. After all wells are added to, a cell count was conducted on the […] to determine the number of circulating tumour cells (CTCs).
(§4) The different cell types were each divided equally into populations, depending on the number of drugs/concentrations to be tested and plated on a cell-culture plate pre-coated with a scaffold of polycaprolactone (PCL) electrospun fibres and incubated at 37° C., 5% CO2, for 5 to (typically 10) minutes to facilitate cell attachment. After attachment, an initial imaging step was carried out using the RealTime-Glo™ MT assay from Promega (Catalogue No. G9711)) and the CellTox™ Green Cytotoxicity Assay (Promega, Catalogue No. G8741), carried out according to manufacturer's instructions. Following this initial imagining, the immunotherapeutic and/or chemotherapeutic agents were added to the cell populations as indicated below. After 10 minutes, the imagining step was repeated. The cell populations were then incubated at 37° C., 5% CO2 for 48 hours. The imaging step was then repeated. The cell populations were then re-dosed with the same immunotherapeutic and/or chemotherapeutic agents as indicated below, and incubated at 37° C., 5% CO2 for a further 48 hours. After this second 48 hour incubation, the imagining step was repeated for a final time.
(§5) At the end of this culture period, dose response scores were calculated using a normalized drug response metric as described in Gupta et al. (Communications Biology volume 3, Article number: 42 (2020), https://doi.org/10.1038/s42003-020-0765-z). The start readout for a given immunotherapeutic or chemotherapeutic agent at a given concentration was the to readout for said immunotherapeutic or chemotherapeutic agent at a specified concentration. The end readout for a given immunotherapeutic or chemotherapeutic agent at a given concentration was the final timepoint reading (t96h) for said immunotherapeutic or chemotherapeutic agent at a specified concentration.
(§6) The positive control start readout for a given drug/concentration was the to readout for the corresponding drug at a specified concentration. The positive control end readout for the corresponding drug at a specified concentration was the final timepoint reading (t96h) for the corresponding blank well.
(§7) The negative control start and end readouts for a given immunotherapeutic or chemotherapeutic agent at a given concentration were the to and final timepoint reading (t96h) respectively for blank cell or blank immuno cell well respectively.
The sensitivity or resistance of a subject's cancer to a given immunotherapeutic or chemotherapeutic agent was determined based on the calculated drug response score as shown in Table 2. […]

[2] = tested on: Cancer Cells from tissue sample (CSCs, tumour marker+ cells) of a patient with GI cancer (Cholangio Carcinoma, stage 4); assay: Drug response score assay on tissue sample, Example 9; details: for Drug sensitivity as calculated by the assay, Tissue: interpretation based on Drug Response Scores; for Drug sensitivity as calculated by the assay, Tissue / Drug response score, conc. 1 / Drug response score, conc. 2 / Drug response score, conc. 3 / Drug response score, conc. 4: tissue sample; for effectiveness on Cancer Cells from tissue sample under laboratory conditions: GI cancer (Cholangio Carcinoma) tissue sample; for Drug response score, conc. 1: conc. 1 per Table 27B: Pem 20, Niv 20, Atez 100, Pacli 0.05, Irino 5, Beva 1 μg/ml, Len 50, 5-FU 250 ng/ml; for Drug response score, conc. 2: conc. 2 per Table 27B: Pem 40, Niv 40, Atez 200, Pacli 0.1, Irino 10, Beva 2 μg/ml, Len 100, 5-FU 500 ng/ml; for Drug response score, conc. 3: conc. 3 per Table 27B: Pem 100, Niv 80, Atez 400, Pacli 0.2, Irino 25, Beva 4 μg/ml, Len 200, 5-FU 1000 ng/ml; for Drug response score, conc. 4: conc. 4 per Table 27B: Pem 160, Niv 160, Atez 800, Pacli 1, Irino 50, Beva 8 μg/ml, Len 400, 5-FU 2000 ng/ml
Description: Where a tissue sample was provided by each subject, cancer stem cells (CSCs, CD133^+), were isolated from said sample. Tumour marker cells were further isolated from each tissue sample. The remaining cells were designated tumour marker^+ cells.
First, disaggregation of the tissue samples was carried out. Disaggregation was dependent on the size of the tissue sample and the method of retrieval: • EBUS (Endobronchial Ultrasound Scan and Biopsy)—very small fragments of tissue in solution-spun at 1200 rpm for 5 minutes to collect tissue pellet • Bronchoscopy-larger fragments with larger amount of blood vessels • Broncho-lavage-similar to EBUS, spun at 1200 rpm for 5 minutes to collet tissue pellet
Once a pellet of tissue obtained, DMEM added to the tissue pellet and the material forced through a […] Smart strainer. Once a cell suspension was achieved, this was spun at 1200 rpm for 5 minutes and the supernatant removed. The cells were then resuspended to a volume of 60 μl.
20 μl of FcR block and 20 μl of CD133 microbeads were added to the resuspended cells, followed by incubation for 15 minutes at 4° C. The cells were then processed using an AutoMACS machine. This separates the […] into CD133^+ and CD133^− cells in 2 separate falcons. The falcon tubes are then centrifuged at 1200 rpm for 5 minutes.
The supernatant was removed from the CD133+falcon tube, and the cells resuspended in DMEM with 2 μl Cell Tox, 2 μl MT and 2 μl MT. 20 μl of the resuspended […] was then plated in each well which will contain an immunotherapy treatment.
The supernatant was removed from the CD133^− falcon tube, and the CD133^− cells contacted with 40 μl of a tumour separation microbeads cocktail containing microbeads bound to anti-CD31, anti-CD45, anti-Glycophorin-A (Gly-A) and an anti-fibroblast antibody.
This cocktail is used to separate out tumour marker cells using MACS, by separating out CD31^+, CD45^+ and Gly-A^+ cells. In addition, anti-fibroblast antibody-labelled beads are also used. The cocktail is added to the CD133^− falcon tube, followed by incubation for 15 minutes at 4° C. MACS is carried out using an AutoMACS machine. This cells which are not bound by the CD31, CD45, Gly-A and anti-fibroblast antibody beads are the tumour marker^+ cells.
as §4
as §5, with “The end readout for a given immunotherapeutic or chemotherapeutic agent at a given concentration was the final timepoint reading (t96h) for said immunotherapeutic or chemotherapeutic agent at a specified concentration.” left out

[3] = tested on: Circulating Tumour Cells (CTCs) from a patient with colon cancer (sigmoid colon cancer); assay: Drug response score assay on CTCs from blood, Example 8; design: key to Drug response score, conc. 1 / Drug response score, conc. 2 / Drug response score, conc. 3 / Drug response score, conc. 4: normalized drug response metric (Gupta et al. 2020); details: for Drug response score, conc. 1: conc. 1 of each drug as in Table 24; for Drug response score, conc. 1 / Drug response score, conc. 2 / Drug response score, conc. 3 / Drug response score, conc. 4: CTCs, t96h; for Drug response score, conc. 2: conc. 2 of each drug as in Table 24; for Drug response score, conc. 3: conc. 3 of each drug as in Table 24; for Drug response score, conc. 4: conc. 4 of each drug as in Table 24; for Drug sensitivity as calculated by the assay (interpretation of Drug Response Scores): Table 26
Description: as §1, §2, §3
as §4, with “After” for “The different cell types were each divided equally into populations, depending on the number of drugs/concentrations to be tested and plated on a cell-culture plate pre-coated with a scaffold of polycaprolactone (PCL) electrospun fibres and incubated at 37° C., 5% CO2, for 5 to (typically 10) minutes to facilitate cell attachment. After”
as §5, §6, §7
(§8) The sensitivity or resistance of a subject's cancer to a given immunotherapeutic or chemotherapeutic agent was determined based on the calculated drug response score as shown in Table 2.
Blood samples from a patient with colon cancer (sigmoid colon cancer) were received on 8 Mar. 2022 and tested using a 9 drug panel.
Chemotherapeutic agents were tested as in Table 24.

[4] = tested on: Circulating Tumour Cells (CTCs) from a patient with head and neck cancer (squamous cell carcinoma); assay: Drug response score assay on CTCs from blood, Example 6
Description: as §1, §2, §3, §4, §5, §6, §7, §8
Blood samples from a patient with head and neck cancer (squamous cell carcinoma) were received on 11 Mar. 2022 and tested using a 7 drug panel.

O=c1[nH]cc(F)c(=O)[nH]1 [5FU]
Drug sensitivity as calculated by the assay, Blood [1]: S+ | Drug sensitivity as calculated by the assay, Tissue [2]: S+

O=c1[nH]cc(F)c(=O)[nH]1 [5 FluoroUracil]
effectiveness on Circulating Tumour Cells under laboratory conditions [1]: S+ | Drug response score from blood sample, conc. 1 [1]: 0.4147 | Drug response score from blood sample, conc. 2 [1]: 0.341 | Drug response score from blood sample, conc. 3 [1]: 0.422 | Drug response score from blood sample, conc. 4 [1]: 0.08131 | effectiveness on Cancer Cells from tissue sample under laboratory conditions [2]: S+ | Drug response score, conc. 1 [2]: 0.9334 | Drug response score, conc. 2 [2]: 0.9488 | Drug response score, conc. 3 [2]: 0.9924 | Drug response score, conc. 4 [2]: 0.01222

Atezolizumab
effectiveness on Circulating Tumour Cells under laboratory conditions [1]: S++ | Drug response score from blood sample, conc. 1 [1]: 0.1037 | Drug response score from blood sample, conc. 2 [1]: 0.1499 | Drug response score from blood sample, conc. 3 [1]: 0.3493 | Drug response score from blood sample, conc. 4 [1]: 0.4391 | Drug sensitivity as calculated by the assay, Blood [1]: S++ | effectiveness on Cancer Cells from tissue sample under laboratory conditions [2]: S+ | Drug sensitivity as calculated by the assay, Tissue [2]: S+ | Drug response score, conc. 1 [2]: 0.8904 | Drug response score, conc. 2 [2]: 0.9047 | Drug response score, conc. 3 [2]: 0.8647 | Drug response score, conc. 4 [2]: 0.7954

Nc1nc2[nH]cc(CCc3ccc(C(=O)N[C@@H](CCC(=O)O)C(=O)O)cc3)c2c(=O)[nH]1 [Pemetrexed]
Drug response score, conc. 1 [3]: 5.1780 | Drug response score, conc. 2 [3]: −1.0000 | Drug response score, conc. 3 [3]: −1.0000 | Drug response score, conc. 4 [3]: −1.0000 | effectiveness on Circulating Tumour Cells under laboratory conditions ([3]; sigmoid colon cancer CTCs): S+++ | Drug sensitivity as calculated by the assay (interpretation of Drug Response Scores) ([3]; sigmoid colon cancer CTCs): Sensitive (S+++)

Cn1nnc2c(C(N)=O)ncn2c1=O [Temozolamide]
Drug response score, conc. 1 [3]: −1.0000 | Drug response score, conc. 2 [3]: 0.0367 | Drug response score, conc. 3 [3]: −0.1421 | Drug response score, conc. 4 [3]: −0.4687 | Drug sensitivity as calculated by the assay (interpretation of Drug Response Scores) ([3]; sigmoid colon cancer CTCs): Sensitive (S++)

CCCCCOC(=O)Nc1nc(=O)n([C@@H]2O[C@H](C)[C@@H](O)[C@H]2O)cc1F [Capecitabine]
Drug response score, conc. 1 ([4]; conc. 1: Ifos 0.125 μg/ml, Gemcit 2 μg/ml, Doxo 10 ng/ml, Etop 1 μg/ml, Metho 0.5 μg/ml, Capecit 200 μg/ml, Vinor 20 μg/ml, CTCs, t96h): 0.7820 | Drug response score, conc. 2 ([4]; conc. 2: Ifos 0.25 μg/ml, Gemcit 10 μg/ml, Doxo 30 ng/ml, Etop 4 μg/ml, Metho 1 μg/ml, Capecit 300 μg/ml, Vinor 40 μg/ml, CTCs, t96h): 0.9244 | Drug response score, conc. 3 ([4]; conc. 3: Ifos 5 μg/ml, Gemcit 20 μg/ml, Doxo 90 ng/ml, Etop 20 μg/ml, Metho 2 μg/ml, Capecit 400 μg/ml, Vinor 80 μg/ml, CTCs, t96h): 0.6113 | Drug response score, conc. 4 ([4]; conc. 4: Ifos 10 μg/ml, Gemcit 40 μg/ml, Doxo 270 ng/ml, Etop 100 μg/ml, Metho 4 μg/ml, Capecit 600 μg/ml, Vinor 200 μg/ml, CTCs, t96h): 1.0037 | effectiveness on Circulating Tumour Cells under laboratory conditions ([4]; head and neck cancer CTCs): not effective | Drug sensitivity as calculated by the assay (interpretation of Drug Response Scores) ([4]; head and neck cancer CTCs, Table 20): Resistant

Bevacizumab
Drug response score from blood sample, conc. 1 [1]: 0.4605 | Drug response score from blood sample, conc. 2 [1]: 1.257 | Drug response score from blood sample, conc. 3 [1]: 1.837 | Drug response score from blood sample, conc. 4 [1]: 2.21 | Drug response score, conc. 1 [2]: 0.93 | Drug response score, conc. 2 [2]: 0.9294 | Drug response score, conc. 3 [2]: 0.932 | Drug response score, conc. 4 [2]: 0.9261

Source: patent publication US20250290915A1, “METHOD FOR PREDICTING RESPONSIVENESS TO THERAPY” (CANCERTAIN LIMITED, priority 2022, published 2025)
